A word on the IC50: it is the concentration that inhibits the measured activity by half. A lower IC50 goes with greater potency in that assay.

In test [1] the target is T1, Thyroid hormone receptor alpha (Homo sapiens, UniProt P10827).
T1 sequence (P10827 whole entry): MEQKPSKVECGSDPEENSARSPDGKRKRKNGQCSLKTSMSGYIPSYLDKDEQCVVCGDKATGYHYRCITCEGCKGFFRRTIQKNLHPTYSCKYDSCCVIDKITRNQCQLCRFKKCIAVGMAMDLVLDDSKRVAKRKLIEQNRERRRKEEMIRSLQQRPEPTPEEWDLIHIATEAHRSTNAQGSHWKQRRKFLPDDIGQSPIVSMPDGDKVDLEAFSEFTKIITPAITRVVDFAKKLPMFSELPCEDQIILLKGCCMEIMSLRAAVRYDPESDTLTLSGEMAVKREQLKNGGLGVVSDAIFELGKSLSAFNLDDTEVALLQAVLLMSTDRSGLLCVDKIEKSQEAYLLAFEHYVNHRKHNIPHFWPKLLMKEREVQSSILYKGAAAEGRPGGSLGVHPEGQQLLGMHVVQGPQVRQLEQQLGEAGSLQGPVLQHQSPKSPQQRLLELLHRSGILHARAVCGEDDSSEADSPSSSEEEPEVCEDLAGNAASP

The target of test [2] is T2, Thyroid hormone receptor beta (Homo sapiens, UniProt P10828).
T2 sequence (P10828 whole entry): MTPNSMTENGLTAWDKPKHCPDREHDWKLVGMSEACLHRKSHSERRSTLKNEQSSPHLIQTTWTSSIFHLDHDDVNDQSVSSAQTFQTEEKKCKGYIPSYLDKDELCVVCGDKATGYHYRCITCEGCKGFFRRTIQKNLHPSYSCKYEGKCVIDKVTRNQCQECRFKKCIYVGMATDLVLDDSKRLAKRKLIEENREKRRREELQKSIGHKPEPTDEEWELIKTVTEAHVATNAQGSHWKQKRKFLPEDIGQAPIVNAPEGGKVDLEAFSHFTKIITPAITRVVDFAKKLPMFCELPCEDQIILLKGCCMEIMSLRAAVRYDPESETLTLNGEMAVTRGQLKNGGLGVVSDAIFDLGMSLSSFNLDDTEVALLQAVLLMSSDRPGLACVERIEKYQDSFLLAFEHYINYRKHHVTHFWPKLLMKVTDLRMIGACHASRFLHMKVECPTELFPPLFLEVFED
Description: Inhibitory concentration against cloned human thyroid hormone receptor beta 1

Test [3] concerns the target T1, Thyroid hormone receptor alpha. The test is described as follows: Inhibitory concentration against cloned human thyroid hormone receptor alpha 1.

In the case of `Cc1c(O)ccc2c(-c3c(Cl)cc(NC(=O)O)cc3Cl)cccc12`, the results for the IC50 in test [1] and in test [2] were 48 nM and 7.2 nM, respectively.
`O=C(O)Cc1cc(Cl)c(Oc2ccc(O)cc2)c(Cl)c1`: the values for the IC50 in test [1] and in test [2] were 3600 nM and 2140 nM, respectively.
Consider `O=C(O)CNc1cc(Cl)c(-c2cccc3c(Br)c(O)ccc23)c(Cl)c1`, for which the concentration for half-maximal inhibition (IC50) in test [1] came out at 19 nM; in test [2], 1.8 nM.
The like results for `O=C(O)CC(=O)Nc1cc(Cl)c(-c2cccc3c(Br)c(O)ccc23)c(Cl)c1` were, in that order, 4.3 nM and 0.3 nM.
On the same counts, the results for `O=C(O)Cc1cc(Cl)c(-c2cccc3c(Br)c(O)ccc23)c(Cl)c1` are 101 nM and 13 nM.
For the molecule `O=C(O)Cc1cc(Cl)c(-c2cccc3cc(O)ccc23)c(Cl)c1`, the IC50 in test [3] stood at 1540 nM; in test [2], 545 nM.
`O=C(O)Nc1cc(Cl)c(-c2cccc3c(-c4ccccc4)c(O)ccc23)c(Cl)c1`: the IC50 in test [1] was determined as 125 nM; in test [2], 29 nM.
Consider `COc1ccc2c(-c3c(Cl)cc(NC(=O)CC(=O)O)cc3Cl)cccc2c1C(C)C`, for which the half-inhibitory concentration (IC50) was found to be 14 nM in test [1] and 0.3 nM in test [2].
For the molecule `O=C(O)C(=O)Nc1cc(Cl)c(-c2cccc3c(Br)c(O)ccc23)c(Cl)c1`, the half-maximal inhibitory concentration (IC50) was 5.4 nM in test [1] and 0.3 nM in test [2].
The like results for `O=C(O)CCNc1cc(Cl)c(-c2cccc3c(Br)c(O)ccc23)c(Cl)c1` were, in that order, 13 nM and 1.8 nM.
On the same counts, the results for `O=C(O)Cc1cc(Cl)c(Oc2ccc(O)c(Br)c2)c(Cl)c1` are 109 nM and 9 nM.
With `O=C(O)CCC(=O)Nc1cc(Cl)c(-c2cccc3c(Br)c(O)ccc23)c(Cl)c1`, the figures for the IC50 in test [1] and in test [2] were 62 nM and 22 nM, respectively.

The record behind these values is ChEMBL document CHEMBL1142857, “A new class of high affinity thyromimetics containing a phenyl-naphthylene core” (Bioorg Med Chem Lett, 2005).
